According to PubChem BioAssay AID2060885 (Molecular Pharmacology Branch, DTP, NCI, 2025):

System: NCI-H23 complex spheroids with HUVEC/MSC, viability
Test: Anticancer human tumor NCI-H23 cell line growth inhibition [RAS]
Conditions: for IC50: curve of first compound; for viability, T/C: stronger effect = lower value; active = viability on the fitted dose curve at most 10% of control; inactive = the rest
Excerpt: RAS pathway inhibitors in Combinations in Complex Spheroids
A high-throughput screen of multi-cell type tumor spheroids was designed to identify active combinations of RAS pathway inhibitors and targeted small molecules. Complex spheroids include a stromal component modeled by human endothelial cells (HUVEC) and fibroblasts modeled by human mesenchymal stem cells (MSCs). The concentration ranges selected for each drug and investigational agent were based upon clinically achievable concentrations if the clinical Cmax of the agent was known.
Compounds. The drugs and investigational agents: abemaciclib (NSC768073), cobimetinib (NSC768068), divarasib (GDC6063, NSC841802), docetaxel (NSC628503), GDC-1971 (RLY-1971, NSC841576), gemcitabine (NSC613327), inavolisib (NSC800729), ipatasertib (NSC767898), KB-0742 (NSC834161), MRTX-1133 (NSC836407), osimertinib (NSC779217), RMC-4630 (NSC839698), RMC-6236 (NSC851965), RMC-6291 (NSC852671), Ro-3306 (NSC812927), sapanisertib (NSC764658), SN-38 (NSC673596), staurosporine (NSC755774), SY5609 (NSC837396), and tovorafenib (DAY101, NSC766906), were obtained from the National Cancer Institute (NCI) Developmental Therapeutics Program Chemical Repository. The FDA-approved anticancer drug set is available from the NCI Developmental Therapeutics Program. […] The stock solutions were prepared in dimethyl sulfoxide (DMSO, Sigma-Aldrich, St. Louis, MO, cat. D2650) at 800-fold the tested concentration and stored at -70 degrees C prior to their use. All drugs and investigational agents were tested over a range starting from a high concentration at or near the clinical Cmax and decreasing in half-log increments. If the clinical Cmax for an agent had not been determined, the highest concentration tested was 10 microM.
Cell Culture. All cells were maintained in an incubator at 37 degrees C and 5% CO2 with 95% humidity. The PDC lines were cultured according to standard operating procedures established by the NCI PDMR. All PDCs were thawed and cultured in Matrigel-coated flasks prepared with a working solution of 1X Ham's F-12 nutrient mix, without supplementation (Invitrogen, Waltham, MA, cat. 11765054), 100 U/mL penicillin-streptomycin (Invitrogen, cat. 15140122), and 2.5% Matrigel (Corning Inc., Corning, NY, cat. 354248) for the first three passages. The 362531-283-R-J2-PDC and 782815-120-R-J1-PDC lines were cultured in 6C/Colon 1B media, which includes advanced DMEM/F-12 (Thermo Fisher Scientific, cat. 12634028), 10 mM HEPES (Thermo Fisher Scientific, cat. 15630080), 1X GlutaMAX supplement (Thermo Fisher Scientific, cat. 35050061), 0.1 mg/mL primocin (InvivoGen, San Diego, CA, cat. ant-pm-2), 10% defined fetal bovine serum, heat inactivated (HyClone Laboratories Inc., Logan, UT, cat. SH30070.03HI), 50% L-WRN conditioned media (ATCC, cat. CRL-3276), 1.25 mM N-Acetyl-L-cysteine (Sigma-Aldrich, cat. A9165), 10 mM nicotinamide (Sigma-Aldrich, cat. N0636), 1X B-27 supplement (Thermo Fisher Scientific, cat. 17504044), 1X N-2 supplement (Thermo Fisher Scientific, cat. 17502048), 50 ng/mL human EGF (Thermo Fisher Scientific, cat. PHG0311), and 10 microM Y-27632 dihydrochloride (Tocris Bioscience, cat. 1254). The K12877-001-R-J1-PDC line was cultured in 6I media, which includes all 6C/Colon 1B media plus 10 ng/mL human FGF-10 (PeproTech, cat. 100-26), 1 ng/mL human FGF-2 (PeproTech, cat. 100-18B), 1 µM prostaglandin E2 (Tocris Bioscience, cat. 2296), […] hydrocortisone (Sigma-Aldrich, cat. H4001), and […] bovine insulin (Sigma-Aldrich, cat. I6634). The K86415-001-R-J1-PDC line was cultured in 6D media, which includes all 6C/Colon 1B media components minus the L-WRN conditioned media. The 485176-168-R4-J1-PDC was cultured in PANC media, which includes all 6C/Colon 1B media plus 100 ng/mL human FGF-10 (PeproTech, cat. 100-26), 500 nM SB-431542 (Selleckchem, cat. S1067), and 10 nM gastrin (Tocris Bioscience, cat. 3006). […]

[1] = second compound 0.0316 µM, first compound 0.0316 µM
[2] = second compound 0.0316 µM, first compound 0.1 µM
[3] = second compound 0.0316 µM, first compound 0.316 µM
[4] = second compound 0.0316 µM, first compound 1 µM
[5] = second compound 0.0316 µM, first compound 3.16 µM
[6] = second compound 0.0316 µM, first compound 10 µM
[7] = second compound 0.1 µM, first compound 0.0316 µM
[8] = second compound 0.1 µM, first compound 0.1 µM
[9] = second compound 0.1 µM, first compound 0.316 µM
[10] = second compound 0.1 µM, first compound 1 µM
[11] = second compound 0.1 µM, first compound 3.16 µM
[12] = second compound 0.1 µM, first compound 10 µM
[13] = second compound 0.316 µM, first compound 0.0316 µM
[14] = second compound 0.316 µM, first compound 0.1 µM
[15] = second compound 0.316 µM, first compound 0.316 µM
[16] = second compound 0.316 µM, first compound 1 µM
[17] = second compound 0.316 µM, first compound 3.16 µM
[18] = second compound 0.316 µM, first compound 10 µM
[19] = second compound 1 µM, first compound 0.0316 µM
[20] = second compound 1 µM, first compound 0.1 µM
[21] = second compound 1 µM, first compound 0.316 µM
[22] = second compound 1 µM, first compound 1 µM
[23] = second compound 1 µM, first compound 3.16 µM
[24] = second compound 1 µM, first compound 10 µM
[25] = second compound 3.16 µM, first compound 0.0316 µM
[26] = second compound 3.16 µM, first compound 0.1 µM
[27] = second compound 3.16 µM, first compound 0.316 µM
[28] = second compound 3.16 µM, first compound 1 µM
[29] = second compound 3.16 µM, first compound 3.16 µM
[30] = second compound 3.16 µM, first compound 10 µM
[31] = second compound 10 µM, first compound 0.0316 µM
[32] = second compound 10 µM, first compound 0.1 µM
[33] = second compound 10 µM, first compound 0.316 µM
[34] = second compound 10 µM, first compound 1 µM
[35] = second compound 10 µM, first compound 3.16 µM
[36] = second compound 10 µM, first compound 10 µM

CC1(O)CCCC1n1c(=O)c(C(F)F)cc2cnc(NC3CCN(S(C)(=O)=O)CC3)nc21 (stereo unspecified) + C#Cc1c(F)ccc2cc(O)cc(-c3ncc4c(N5CC6CCC(C5)N6)nc(OCC56CCCN5CC(F)C6)nc4c3F)c12
4.83 µM: IC50 (second compound 0.316 µM)
3.91 µM: IC50 (second compound 1 µM)
< 0.0316 µM: IC50 (second compound 3.16 µM) | IC50 (second compound 10 µM)
5.24 µM: IC50 (second compound 0.1 µM)
5.49 µM: IC50 (second compound 0.0316 µM)
inactive: viability, T/C [1] 93.3% | viability, T/C [2] 92.8% | viability, T/C [3] 75.2% | viability, T/C [4] 80.1% | viability, T/C [5] 81.7% | viability, T/C [6] 15.6% | viability, T/C [7] 90.2% | viability, T/C [8] 87.4% | viability, T/C [9] 58.7% | viability, T/C [10] 77.3% | viability, T/C [11] 76.4% | viability, T/C [12] 16.3% | viability, T/C [13] 86.5% | viability, T/C [14] 74.1% | viability, T/C [15] 58% | viability, T/C [16] 65% | viability, T/C [17] 72.2% | viability, T/C [18] 13.7% | viability, T/C [19] 62.6% | viability, T/C [20] 66.1% | viability, T/C [21] 46.6% | viability, T/C [22] 52.7% | viability, T/C [23] 66.3% | viability, T/C [24] 10.9% | viability, T/C [25] 48.3% | viability, T/C [26] 40.2% | viability, T/C [27] 34.7% | viability, T/C [28] 40% | viability, T/C [29] 42% | viability, T/C [30] 7.05% | viability, T/C [31] 32.6% | viability, T/C [32] 28.3% | viability, T/C [33] 24.9% | viability, T/C [34] 27.6% | viability, T/C [35] 29.6% | viability, T/C [36] 2.78%

CCN1CCN(Cc2ccc(Nc3ncc(F)c(-c4cc(F)c5nc(C)n(C(C)C)c5c4)n3)nc2)CC1 + C#Cc1c(F)ccc2cc(O)cc(-c3ncc4c(N5CC6CCC(C5)N6)nc(OCC56CCCN5CC(F)C6)nc4c3F)c12
0.0122 µM: IC50 (second compound 3.16 µM)
< 0.00316 µM: IC50 (second compound 10 µM)
0.0562 µM: IC50 (second compound 1 µM)
0.0895 µM: IC50 (second compound 0.316 µM)
> 1 µM: IC50 (second compound 0.0316 µM) | IC50 (second compound 0.1 µM)
inactive: viability, T/C (second compound 0.0316 µM, first compound 0.00316 µM) 105% | viability, T/C (second compound 0.0316 µM, first compound 0.01 µM) 102% | viability, T/C [1] 79% | viability, T/C [2] 61.8% | viability, T/C [3] 61.2% | viability, T/C [4] 60.9% | viability, T/C (second compound 0.1 µM, first compound 0.00316 µM) 104% | viability, T/C (second compound 0.1 µM, first compound 0.01 µM) 108% | viability, T/C [7] 70% | viability, T/C [8] 56.8% | viability, T/C [9] 50.9% | viability, T/C [10] 52.2% | viability, T/C (second compound 0.316 µM, first compound 0.00316 µM) 94.2% | viability, T/C (second compound 0.316 µM, first compound 0.01 µM) 109% | viability, T/C [13] 71.8% | viability, T/C [14] 51.4% | viability, T/C [15] 48.4% | viability, T/C [16] 43.3% | viability, T/C (second compound 1 µM, first compound 0.00316 µM) 81.2% | viability, T/C (second compound 1 µM, first compound 0.01 µM) 75% | viability, T/C [19] 56.6% | viability, T/C [20] 42.6% | viability, T/C [21] 40.4% | viability, T/C [22] 34.7% | viability, T/C (second compound 3.16 µM, first compound 0.00316 µM) 54.5% | viability, T/C (second compound 3.16 µM, first compound 0.01 µM) 53.3% | viability, T/C [25] 37.9% | viability, T/C [26] 29% | viability, T/C [27] 30% | viability, T/C [28] 22.8% | viability, T/C (second compound 10 µM, first compound 0.00316 µM) 30.3% | viability, T/C (second compound 10 µM, first compound 0.01 µM) 39.5% | viability, T/C [31] 26.5% | viability, T/C [32] 21.1% | viability, T/C [33] 22.2% | viability, T/C [34] 21%

C[C@@H](NC(=O)c1ncnc(N)c1Cl)c1ncc(C(=O)Nc2cc(C(F)(F)F)c(Cl)cn2)s1 + C#Cc1c(F)ccc2cc(O)cc(-c3ncc4c(N5CC6CCC(C5)N6)nc(OCC56CCCN5CC(F)C6)nc4c3F)c12
inactive: viability, T/C [1] 110% | viability, T/C [2] 112% | viability, T/C [3] 98.9% | viability, T/C [4] 99.9% | viability, T/C [5] 92.3% | viability, T/C [6] 66.5% | viability, T/C [7] 103% | viability, T/C [8] 110% | viability, T/C [9] 105% | viability, T/C [10] 99.5% | viability, T/C [11] 91.8% | viability, T/C [12] 66.2% | viability, T/C [13] 104% | viability, T/C [14] 110% | viability, T/C [15] 106% | viability, T/C [16] 99.4% | viability, T/C [17] 85.6% | viability, T/C [18] 74.4% | viability, T/C [19] 90.3% | viability, T/C [20] 96.2% | viability, T/C [21] 93.1% | viability, T/C [22] 86.1% | viability, T/C [23] 83.3% | viability, T/C [24] 60.7% | viability, T/C [25] 67.2% | viability, T/C [26] 69.3% | viability, T/C [27] 60.8% | viability, T/C [28] 56.9% | viability, T/C [29] 53.6% | viability, T/C [30] 52.5% | viability, T/C [31] 38.7% | viability, T/C [32] 49.5% | viability, T/C [33] 46.3% | viability, T/C [34] 41.1% | viability, T/C [35] 48.1% | viability, T/C [36] 38.3%
> 10 µM: IC50 (second compound 0.0316 µM) | IC50 (second compound 0.1 µM) | IC50 (second compound 0.316 µM) | IC50 (second compound 1 µM) | IC50 (second compound 3.16 µM)
< 0.0316 µM: IC50 (second compound 10 µM)
